What was measured:
Tsc2−/− MEFs = experiment: Proliferation of Tsc2-/- MEFs relative to Tsc2+/+ MEFs treated with compounds (FIG. 9); type: cell-based; conditions: for cytotoxic effect on Tsc2−/− cells / selective effects on cell viability in Tsc2−/− cells compared with rapamycin: JWD07 5 μM, AT7915 2 μM; for cytotoxic effect on Tsc2−/− cells: Mizoribine 2.5 μM; for selective effects on cell viability in Tsc2−/− cells compared with rapamycin: Mizoribine 2.5 μM vs Rapamycin 20 nM
Procedure: FIG. 9 is a series of panels, panels A-E showing TSC2 loss confers sensitivity to CCNT1, RNGTT, or CDK11 loss of function. Panel A is a schematic of the methods disclosed herein. […] Panel B represents data corresponding to the CDK9/CDK11 inhibitor JWD07 (5 μM). Panel C represents data corresponding to the CDK2/CDK9/CDK11 inhibitor AT7915 (2 μM). Panel D represents data corresponding to the RNGTT/IMPDH inhibitor Mizoribine (2.5 μM). Panel E represents data corresponding to the mTORC1 inhibitor Rapamycin (20 nM).

[1] = test system: luciferase-based reporter constructs in S2R+ cells; experiment: Luciferase-based mutation reporter assay (sgRNA mutation efficiency); type: cell-based, Drosophila; conditions: sgRNAs with no mismatches targeting luciferase-based reporter in S2R+ cells; mutation rate = 1/Firefly luciferase normalized to Renilla
Procedure: The luciferase reporter vector was constructed by PCR amplifying the metallothionein promoter from pMK33 and luciferase gene from pGL3 (Table 1) and combining these with annealed oligos containing a gRNA target site (Table 1 and Table 2) and a custom made cloning vector using Golden Gate assembly.
Luciferase assays were performed by transfecting S2R+ cells with the relevant pl018 plasmid, luciferase reporter and pRL-TK (Promega) (to allow normalization of transfection efficiencies between samples) in 96 well plates using Effectene Transfection Reagent (Qiagen) according to the manufacturer's recommendations. Twenty-four hours after transfection, CuSO4 was added to the cell media at a final concentration of 140 μM and cells were incubated for a further 16 hours.
Firefly and Renilla luciferase readings were taken using the Dual-Glo Luciferase Assay System (Promega) according to manufacturer's instructions and a SpectraMax Paradigm Multi-Mode Microplate Detection Platform (Molecular Devices).
Because the rate of mutations varies widely between different sgRNAs (25-27), whether efficiency could be predicted based on the sgRNA sequence was tested. 75 additional sgRNAs were generated, each targeting luciferase-based reporter constructs with no mismatches and tested mutation efficiency for each. Using this panel of sgRNAs and associated efficiencies, the presence or absence of a correlation between GC content and mutation rate was examined. […] Next, whether a more general sequence-based approach was tested for its ability to improve efficiency prediction. The nucleotide content of all 75 sgRNAs was examined, considering each position separately and generated a probability matrix linking nucleotide content with mutation rate (FIG. 1, panel B). This was then used to generate predicted efficiency scores based on sgRNA sequence. […] Note that sgRNAs targeting close to the 3′ end of genes or with apparent viability effects were not included in this analysis. Finally, predicted scores were generated for all sgRNA target sites in the Drosophila genome and annotated.

## O=C(NC1CCNCC1)c1n[nH]cc1NC(=O)c1c(Cl)cccc1Cl [AT7915]
Tsc2−/− MEFs; 2 μM, FIG. 9 panel C
  proliferation of Tsc2−/− MEFs relative to Tsc2+/+ MEFs: selectively reduce proliferation
Tsc2−/− MEFs
  cytotoxic effect on Tsc2−/− cells: exert a cytotoxic effect
  selective effects on cell viability in Tsc2−/− cells compared with rapamycin: superior to rapamycin

## NC(=O)c1ncn([C@@H]2O[C@H](CO)[C@@H](O)[C@H]2O)c1O [Mizoribine]
Tsc2−/− MEFs; 2.5 μM, FIG. 9 panel D
  proliferation of Tsc2−/− MEFs relative to Tsc2+/+ MEFs: selectively reduce proliferation
Tsc2−/− MEFs
  cytotoxic effect on Tsc2−/− cells: exert a cytotoxic effect
  selective effects on cell viability in Tsc2−/− cells compared with rapamycin: superior to rapamycin

## GCCCAGGGGGAATCGGCCGC: sgRNA targeting a luciferase-based reporter construct, no mismatches (chemistry not given here)
[1]
  Mean efficiency: 0.4072

## GCCCGAAAGACACGTTTTTT: sgRNA targeting a luciferase-based reporter construct, no mismatches (chemistry not given here)
[1]
  Mean efficiency: 0.197

## GCGAGTTATCTATCCCCAGG: sgRNA targeting a luciferase-based reporter construct, no mismatches (chemistry not given here)
[1]
  Mean efficiency: 0.4749

## GCTCTGGACCATACGGGGAT: sgRNA targeting a luciferase-based reporter construct, no mismatches (chemistry not given here)
[1]
  Mean efficiency: 0.1746

## GGAATAACCACGTCCCGCGT: sgRNA targeting a luciferase-based reporter construct, no mismatches (chemistry not given here)
[1]
  Mean efficiency: 0.2894

## GGAGCGAGTTATCTATCCCC: sgRNA targeting a luciferase-based reporter construct, no mismatches (chemistry not given here)
[1]
  Mean efficiency: 0.06181

## GGATGTTCCGGCACAACGCC: sgRNA targeting a luciferase-based reporter construct, no mismatches (chemistry not given here)
[1]
  Mean efficiency: 0.2753

## GGCACCGGGTAGCCTTGCGC: sgRNA targeting a luciferase-based reporter construct, no mismatches (chemistry not given here)
[1]
  Mean efficiency: 0.3497

## GGGCTCCAGGCTGCGCGCAA: sgRNA targeting a luciferase-based reporter construct, no mismatches (chemistry not given here)
[1]
  Mean efficiency: 0.2308

## GGTTACCAACTCAGGACCCG: sgRNA targeting a luciferase-based reporter construct, no mismatches (chemistry not given here)
[1]
  Mean efficiency: 0.4858

## GGTTCACTATTGGGGCGATC: sgRNA targeting a luciferase-based reporter construct, no mismatches (chemistry not given here)
[1]
  Mean efficiency: 0.1771

## GTCGGAACCTGAGTCGTTTT: sgRNA targeting a luciferase-based reporter construct, no mismatches (chemistry not given here)
[1]
  Mean efficiency: 0.5891

## GTGCTGCGCCAACCCAAATA: sgRNA targeting a luciferase-based reporter construct, no mismatches (chemistry not given here)
[1]
  Mean efficiency: 0.0849

## GTGGAATCTACTGTGGAATC: sgRNA targeting a luciferase-based reporter construct, no mismatches (chemistry not given here)
[1]
  Mean efficiency: 0.2969

## GTGTCCAGGCTCGTCATGCC: sgRNA targeting a luciferase-based reporter construct, no mismatches (chemistry not given here)
[1]
  Mean efficiency: 0.8603

## TAAGACATACGTACGCCCAG: sgRNA targeting a luciferase-based reporter construct, no mismatches (chemistry not given here)
[1]
  Mean efficiency: 0.1814

## TCCTATTACTGCGTGCAGCC: sgRNA targeting a luciferase-based reporter construct, no mismatches (chemistry not given here)
[1]
  Mean efficiency: 1.342

## TCGAGGATGGGACGCTTATC: sgRNA targeting a luciferase-based reporter construct, no mismatches (chemistry not given here)
[1]
  Mean efficiency: 0.5053

## TCGATGACGCCCGGGTTAAC: sgRNA targeting a luciferase-based reporter construct, no mismatches (chemistry not given here)
[1]
  Mean efficiency: 0.26

## TCGCGGGCTTGCATGACGCG: sgRNA targeting a luciferase-based reporter construct, no mismatches (chemistry not given here)
[1]
  Mean efficiency: 0.3295

## TCGTACCGCACCGGTATTTT: sgRNA targeting a luciferase-based reporter construct, no mismatches (chemistry not given here)
[1]
  Mean efficiency: 0.1565

## TGACGCCTCAGGGTGCCGTC: sgRNA targeting a luciferase-based reporter construct, no mismatches (chemistry not given here)
[1]
  Mean efficiency: 0.6594

## TGCGCTTACCGACGATTGGG: sgRNA targeting a luciferase-based reporter construct, no mismatches (chemistry not given here)
[1]
  Mean efficiency: 0.1109

## TGCGGTCGCGTGAGAAATAT: sgRNA targeting a luciferase-based reporter construct, no mismatches (chemistry not given here)
[1]
  Mean efficiency: 0.02876

## TGTTCCCTACACGGCGCCAG: sgRNA targeting a luciferase-based reporter construct, no mismatches (chemistry not given here)
[1]
  Mean efficiency: 0.2531

## TTCTCCGCTGTTATCCTATA: sgRNA targeting a luciferase-based reporter construct, no mismatches (chemistry not given here)
[1]
  Mean efficiency: 0.08182

## TTCTGAGTACATGTGATACC: sgRNA targeting a luciferase-based reporter construct, no mismatches (chemistry not given here)
[1]
  Mean efficiency: 0.2974

## TTGACATCAGCGCGCGAGGC: sgRNA targeting a luciferase-based reporter construct, no mismatches (chemistry not given here)
[1]
  Mean efficiency: 0.3893

## TTGGCCGCGACCTGTTTATC: sgRNA targeting a luciferase-based reporter construct, no mismatches (chemistry not given here)
[1]
  Mean efficiency: 0.9282

## TTGTTCGAAGATCTGCGCGA: sgRNA targeting a luciferase-based reporter construct, no mismatches (chemistry not given here)
[1]
  Mean efficiency: 0.2212

## TTGTTTGCTGGTACAAACGC: sgRNA targeting a luciferase-based reporter construct, no mismatches (chemistry not given here)
[1]
  Mean efficiency: 0.2993

## TTTTTTTGGGATCATATACG: sgRNA targeting a luciferase-based reporter construct, no mismatches (chemistry not given here)
[1]
  Mean efficiency: 0.1278
